Among the data in patent publication US12502386B2, “Nitrogen-containing heterocyclic compound and use thereof” (SHANGHAI SHIJIANG BIOTECHNOLOGY CO., LTD, priority 2022, dated 2025) are IC50 values, retold here.

For test [1], the system named is ov-NNMT NCI-H82 cell. As to the kind of experiment: CellTiter-Glo cell viability, ov-NNMT NCI-H82 cell (NNMT overexpressed). The test is classed as cell-based, human. Conditions: intracellular ATP, read-out: inhibitory effect on OV-NNMT NCI-H82 (IC50).
In test [2] the test system is MDA-MB-453. Description: CellTiter-Glo cell viability, tumor cell line MDA-MB-453. The test is classed as cell-based. Conditions: Homo sapiens, MDA-MB-453, 72 h; breast cancer cell; 3 days of culture; read-out: inhibitory effect on MDA-MB-453 (IC50). Here is the method:
(§1) Cell viability was detected using the Promega CellTiter-Glo kit, cell viability was determined by directly measuring intracellular ATP content. In the experiment, the IC50 value of the compounds prepared in the Examples of the present invention on various tumor cell lines was detected.
(§2) Each tumor cell was cultured in relevant medium. After cell passage, the gradient diluted compounds prepared in the Examples of the present invention was added. After 3 days of culture, the relevant IC50 (50% inhibiting concentration) was measured. The name, source and culture conditions of each tumor cell line were as follows: […]

Test [3] has as its system NCI-H82. As to the kind of experiment: CellTiter-Glo cell viability, tumor cell line NCI-H82. The test is classed as cell-based. Conditions: NCI-H82, 72 h; human small cell lung cancer cell; 3 days of culture; read-out: inhibitory effect on NCI-H82 (IC50). Here is the method: as §1
(§3) Each tumor cell was cultured in relevant medium. After cell passage, the gradient diluted compounds prepared in the Examples of the present invention was added. After 3 days of culture, the relevant IC50 (50% inhibiting concentration) was measured. The name, source and culture conditions of each tumor cell line were as follows:
Cell line NCI-H82 (ATCC, No. HTB-175) was cultured in 10% fetal bovine serum-containing RPMI1640 medium (+P/S).

Test [4] concerns Con-NCI-H82 cell. As to the kind of experiment: CellTiter-Glo cell viability, Con-NCI-H82 cell (empty-vector control). Conditions: Homo sapiens, NCI-H82, NCI-H82 transfected with empty virus vector (control), intracellular ATP, read-out: inhibitory effect on Con-NCI-H82 (IC50). The test is classed as cell-based, human.
Test [5] has as its system G-401. Description: CellTiter-Glo cell viability, tumor cell line G-401. The test is classed as cell-based. Conditions: G-401, 72 h; human renal carcinoma Wilms cell; 3 days of culture; read-out: inhibitory effect on G-401 (IC50). Here is the method:
as §1, §3
Cell line G-401 (ATCC, No. CRL-1441) was cultured in 10% fetal bovine serum-containing McCoy's 5a medium (+P/S).

The subject of test [6] is GB-1. Description: CellTiter-Glo cell viability, tumor cell line GB-1. The test is classed as cell-based. Conditions: GB-1, 72 h; human brain glioblastoma cell; 3 days of culture; read-out: inhibitory effect on GB-1 (IC50). The method, then:
as §1, §3
Cell line GB-1 (JCRB, No. IFO50489) was cultured in 10% fetal bovine serum-containing DMEM medium (+P/S).
(§4) Cell viability was detected using the Promega CellTiter-Glo kit, cell viability was determined by directly measuring intracellular ATP content. In the experiment, the IC50 value of the compounds prepared in the Examples of the present invention on various brain tumor cell lines was detected.

Test [7] concerns NB-1. As to the kind of experiment: CellTiter-Glo cell viability, brain tumor cell line NB-1. The test is classed as cell-based. Conditions: Homo sapiens, NB1, 72 h; brain neuroblastoma cell; 3 days of culture; read-out: inhibitory effect on NB-1 (IC50). The method, then: as §4, §2
Test [8] deals with SW48. Description: CellTiter-Glo cell viability, tumor cell line SW48. It counts as cell-based. Conditions: SW48, 72 h; human colon adenocarcinoma cell; 3 days of culture; read-out: inhibitory effect on SW48 (IC50). Here is the method:
as §1, §3
Cell line SW48 (ATCC, No. CCL-231) was cultured in 10% fetal bovine serum-containing Leibovitz's L-15 medium (+P/S).

In test [9] the test system is Kelly. As to the kind of experiment: CellTiter-Glo cell viability, brain tumor cell line Kelly. Conditions: Homo sapiens, 72 h, brain neuroblastoma cell, 3 days of culture, read-out: inhibitory effect on Kelly (IC50). It counts as cell-based. The method, then:
as §4, §3
Cell line Kelly (ECACC, No. 92110411) was cultured in 10% fetal bovine serum and 2 mM glutamine-containing RPMI1640 medium.

Test [10] deals with D341 Med. As to the kind of experiment: CellTiter-Glo cell viability, brain tumor cell line D341 Med. It counts as cell-based. Conditions: Homo sapiens, 72 h, cerebellar medulloblastoma cell, 3 days of culture, read-out: inhibitory effect on D341 Med (IC50). Here is the method:
as §4, §3
Cell line D341 Med (ATCC, No. HTB-187) was cultured in 20% fetal bovine serum-containing EMEM medium (+P/S).

Test [11] deals with 786-O. Description: CellTiter-Glo cell viability, tumor cell line 786-O. The test is classed as cell-based. Conditions: Homo sapiens, 786-0, 72 h; clear cell renal cell adenocarcinoma cell; 3 days of culture; read-out: inhibitory effect on 786-O (IC50). The method, then: as §1, §3
Cell line 786-0 (ATCC, No. CRL-1932) was cultured in 10% fetal bovine serum-containing RPMI164B medium (+P/S).

In test [12] the test system is sh-DNMT1 NCI-H82 cell. Description: CellTiter-Glo cell viability, sh-DNMT1 NCI-H82 cell (DNMT1 knocked down). Conditions: Homo sapiens, NCI-H82, NCI-H82 with DNMT1 knocked down by shRNA, intracellular ATP, read-out: inhibitory effect on sh-DNMT1 NCI-H82 (IC50). The test is classed as cell-based, human.
Test [13] relates to CFPAC-1. Description: CellTiter-Glo cell viability, tumor cell line CFPAC-1. The test is classed as cell-based. Conditions: CFPAC-1, 72 h; human pancreatic cancer cell; 3 days of culture; read-out: inhibitory effect on CFPAC-1 (IC50). The method, then:
as §1, §3
Cell line CFPAC-1 (ATCC, No. CRL-1918) was cultured in 10% fetal bovine serum-containing IMDM medium (+P/S).

For test [14], the system named is SF-126. As to the kind of experiment: CellTiter-Glo cell viability, tumor cell line SF-126. The test is classed as cell-based. Conditions: SF-126, 72 h, read-out: inhibitory effect on SF-126 (IC50); human glioblastoma multiforme cell; 3 days of culture. The method, then: as §1, §3
Cell line SF126 (JCRB, No. IFO50286) was cultured in 10% fetal bovine serum-containing EMEM medium (+P/S).
as §4

Setting [15] is: Homo sapiens, NCI-H82, NCI-H82 overexpressing NNMT protein.

Read-outs that look alike come from different tables or passages of the source.

For `CCCOc1c(OC)ccc2c1C(C1CCCC1)N1CCc3cc4c(cc3C1=C2)OCO4` (stereo not shown) [AB35512], the IC50 in test [1] (setting [15]) worked out at 2.42 µM; in [2], 1.56 µM; in [3], 0.62 µM; in test [4], 0.62 µM; in test [5], 1.33 µM; in [6], 23.5 µM. For the same molecule, the IC50 is 1.56 µM in test [7]; 2.02 µM in test [8]; 4.23 µM in test [9]; 2.01 µM in [10]; 15.3 µM in [11]; 2.32 µM in test [12]. For the same molecule, the IC50 in test [13] was 17.3 µM; in test [14], 18.1 µM.

With `C=CCOc1c(OC)ccc2c1C(C(Cl)(Cl)Cl)N1CCc3cc4c(cc3C1=C2)OCO4` (stereo not shown) [AB35534], the IC50 was 3.96 µM in test [1] (setting [15]); 1.88 µM in test [2]; 1.32 µM in test [3]; 1.32 µM in [4]; 2.03 µM in [5]; 20.2 µM in test [6]. In addition, the IC50 in [7] was 1.58 µM; in [8], 2.45 µM; in [9], 2.09 µM; in [10] it was 3.12 µM; in test [11], 14.3 µM; in test [12] it was 3.84 µM. Besides, the figures for the IC50 in test [13] and in test [14] were 16.9 µM and 19 µM, respectively.

On to `C1=C2c3cc4c(cc3CCN2C(C2CCCC2)c2c1ccc1c2OCO1)OCO4` (stereo not shown) [AB36423], for which the IC50 in test [1] (setting [15]) amounted to 5.11 µM; in test [2] it was 1.66 µM; in test [3], 1.85 µM; in test [4], 1.85 µM; in test [5], 2.32 µM; in test [6], 16.1 µM. The IC50 in [7] stood at 2.98 µM; in [8], 2.54 µM; in test [9], 3.12 µM; in test [10], 1.55 µM; in test [11], 22.3 µM; in test [12] it was 4.98 µM. In addition, the IC50 in test [13] is 14.3 µM; in test [14] it was greater than 30 µM.

For `COc1ccc2c(c1OC)C(C1CCCCC1)N1CCc3cc4c(cc3C1=C2)OCO4` (stereo not shown) [AB31893], the IC50 is 4.12 µM in [1] (setting [15]); 1.68 µM in test [2]; 1.12 µM in test [3]; 1.12 µM in [4]; 1.44 µM in test [5]; 15.5 µM in test [6]. In addition, the IC50 stood at 1.88 µM in test [7]; 1.85 µM in [8]; 2.09 µM in test [9]; 1.46 µM in test [10]; 9.72 µM in [11]; 5.68 µM in [12]. Also, the IC50 in test [13] was 10.9 µM; in [14], 12.3 µM.

`[2H]C1c2c(ccc(OC)c2OCCC)C=C2c3cc4c(cc3CCN21)OCO4` (stereo not shown) [AB36437]: the IC50 in [1] (setting [15]) came out at 2.73 µM; in [2], 1.34 µM; in test [3], 0.65 µM; in test [4] it was 0.65 µM; in test [5] it was 0.98 µM; in test [6], 19.9 µM. In addition, the IC50 in test [7] is 2.58 µM; in test [8], 2.55 µM; in test [9], 1.89 µM; in test [10], 2.12 µM; in test [11], 20.2 µM; in test [12], 3.12 µM. The IC50 was 14.4 µM in [13] and 16.8 µM in [14].

Take `COc1ccc2c(c1OC)C(C1CCCC1)N1CCc3cc4c(cc3C1=C2)OCO4` (stereo not shown) [AB31900]: the half-maximal inhibitory concentration (IC50) is 4.88 µM in [1] (NCI-H82 overexpressing NNMT protein); 1.46 µM in [2]; 1.08 µM in test [3]; 1.32 µM in test [5]; greater than 30 µM in [6]; 0.88 µM in test [7]. For the same molecule, the IC50 in test [8] was 1.28 µM; in test [9], 1.12 µM; in test [10], 0.98 µM; in [11] it was 15.7 µM; in test [13], 18.3 µM; in test [14], 20.1 µM.
